Source: patent US20260130933A1, “PHARMACEUTICAL COMPOSITION FOR PREVENTION OR TREATMENT OF NEPHROPATHY AND/OR DIABETES MELLITUS, COMPRISING ENAVOGLIFLOZIN” (DAEWOONG PHARMACEUTICAL CO., LTD., priority 2022, published 2026)

Test: Example 1: phase 3 trial, enavogliflozin 0.3 mg once a day as monotherapy vs placebo for 24 weeks in patients with type 2 diabetes (HbA1c, FPG, C-peptide, body weight, lipids, blood pressure, HOMA, UACR, UGCR, adiponectin, leptin, safety)
Type: in vivo, human
Experimental: When a subject voluntarily gave written consent to participate in this clinical trial, a screening test was conducted. […] However, when the administration of a hypoglycemic agent was interrupted before the clinical trial Visit 1 (screening), at least an 8-week washout period, including the discontinuation period, was required, and during this period, a stable diet and exercise program was followed. Naïve patients were screened without a separate washout period, and the criteria for naïve patients were defined as patients who had not been administered hypoglycemic agents within 24 weeks prior to the date of obtaining written consent. […] In addition, they were instructed to maintain regular exercise and dietary control starting from 8 weeks prior to screening without changing their daily life patterns during the clinical trial period.

With `OC[C@H]1O[C@@H](c2cc(Cc3ccc(C4CC4)cc3)c(Cl)c3c2CCO3)[C@H](O)[C@@H](O)[C@@H]1O` [Enavogliflozin, (2S,3R,4R,5S,6R)-2-(7-chloro-6 (4-cyclopropylbenzyl)-2,3-dihydrobenzofuran-4-yl)-6-(hydroxymethyl)tetrahydro-2H-pyran-3,4,5-triol] the fasting C-peptide, Mean (SD) (week 6) was 0.66 ng/mL, the “systolic blood pressure change from baseline, LS mean” value (week 6) was −5.38 mmHg and the “systolic blood pressure change from baseline, Mean” value (week 6) was −4.81 mmHg. For the same compound, the “total cholesterol change from baseline, LS mean” value (week 6) was 5.76 mg/dL, the “total cholesterol change from baseline, Mean” value (week 6) was 5.75 mg/dL and the “total cholesterol, Mean” value (week 6) was 166.11 mg/dL. For the same compound, the “triglycerides change from baseline, LS mean” value (week 6) was -5.05 mg/dL, the “triglycerides change from baseline, Mean” value (week 6) was -1.21 mg/dL and the “triglycerides, Mean” value (week 6) was 116.13 mg/dL. The “FPG change from baseline, LS mean difference” value (week 6, vs placebo) was -26.91 mg/dL, the “HDL-C change from baseline, LS mean difference” value (week 6, vs placebo) was 1.89 mg/dL and the “HOMA-IR change from baseline, LS mean difference” value (week 6, vs placebo) was −1.81. For the same compound, the “HOMA-β change from baseline, LS mean difference” value (week 6, vs placebo) was 3.30, the “HbA1c change from baseline, LS mean difference” value (week 6, vs placebo) was −0.52 % p and the “LDL-C change from baseline, LS mean difference” value (week 6, vs placebo) was 0.64 mg/dL. The “Odds ratio for achieving HbA1c<6.5%” value (week 6, vs placebo) was 3.29, the “Odds ratio for achieving HbA1c<7%” value (week 6, vs placebo) was 6.55 and the “Odds ratio for achieving therapeutic response” value (week 6, vs placebo) was 12.84. The “UACR change from baseline, LS mean difference” value (week 6, vs placebo) was 7.96 g/kg, the “UGCR change from baseline, LS mean difference” value (week 6, vs placebo) was 52.97 mg/mg and the “adiponectin change from baseline, LS mean difference” value (week 6, vs placebo) was 0.26 µg/mL. For the same compound, the “body weight change from baseline, LS mean difference” value (week 6, vs placebo) was -1.45 kg, the “diastolic blood pressure change from baseline, LS mean difference” value (week 6, vs placebo) was −2.43 mmHg and the fasting C-peptide change from baseline, LS mean difference (week 6, vs placebo) was -0.11 ng/mL. The “leptin change from baseline, LS mean difference” value (week 6, vs placebo) was -2.89 ng/mL, the “systolic blood pressure change from baseline, LS mean difference” value (week 6, vs placebo) was −4.07 mmHg and the “total cholesterol change from baseline, LS mean difference” value (week 6, vs placebo) was 1.95 mg/dL. The “triglycerides change from baseline, LS mean difference” value (week 6, vs placebo) was -17.69 mg/dL, the HbA1c change from baseline, LS mean difference (week 6, vs placebo, listed as enavogliflozin) was -0.52 % p and the “Body weight, Mean” value (week 12) was 66.12 kg. The “Diastolic blood pressure, Mean” value (week 12) was 72.83 mmHg, the “FPG change from baseline, LS mean (SE)” value (week 12) was −30.66(2.93) mg/dL and the “FPG change from baseline, Mean (SD)” value (week 12) was −29.34(20.90) mg/dL. The “FPG, Mean (SD)” value (week 12) was 111.66(13.55) mg/dL, the “HDL-C change from baseline, LS mean” value (week 12) was 2.35 mg/dL and the “HDL-C change from baseline, Mean” value (week 12) was 2.22 mg/dL. The “HDL-C, Mean” value (week 12) was 54.14 mg/dL, the “HbA1c change from baseline, LS mean (SE)” value (week 12) was −0.84(0.07) % p and the “HbA1c change from baseline, Mean (SD)” value (week 12) was −0.80(0.55) % p. The “HbA1c, Mean (SD)” value (week 12) was 6.84(0.53) %, the “LDL-C change from baseline, LS mean” value (week 12) was -2.31 mg/dL and the “LDL-C change from baseline, Mean” value (week 12) was -0.09 mg/dL. For the same compound, the “LDL-C, Mean” value (week 12) was 95.38 mg/dL, the “Subjects achieving HbA1c target of <6.5%” value (week 12) was 22(26.83) % and the “Subjects achieving HbA1c target of <7%” value (week 12) was 54(65.85) %. The “Subjects achieving therapeutic glycemic response (HbA1c change >0.5% or HbA1c<7%)” value (week 12) was 70(85.37) %, the “Systolic blood pressure, Mean” value (week 12) was 122.06 mmHg and the “body weight change from baseline, LS mean” value (week 12) was -2.59 kg. For the same compound, the “body weight change from baseline, Mean” value (week 12) was -2.65 kg, the “diastolic blood pressure change from baseline, LS mean” value (week 12) was −3.82 mmHg and the “diastolic blood pressure change from baseline, Mean” value (week 12) was −3.40 mmHg. For the same compound, the fasting C-peptide, Mean (SD) (week 12) was 0.64 ng/mL, the “systolic blood pressure change from baseline, LS mean” value (week 12) was −6.37 mmHg and the “systolic blood pressure change from baseline, Mean” value (week 12) was −5.78 mmHg. For the same compound, the “total cholesterol change from baseline, LS mean” value (week 12) was 4.75 mg/dL, the “total cholesterol change from baseline, Mean” value (week 12) was 5.99 mg/dL and the “total cholesterol, Mean” value (week 12) was 167.40 mg/dL. For the same compound, the “triglycerides change from baseline, LS mean” value (week 12) was 6.37 mg/dL, the “triglycerides change from baseline, Mean” value (week 12) was 2.90 mg/dL and the “triglycerides, Mean” value (week 12) was 120.34 mg/dL. For the same compound, the “FPG change from baseline, LS mean difference” value (week 12, vs placebo) was -32.26 mg/dL, the “HDL-C change from baseline, LS mean difference” value (week 12, vs placebo) was 2.36 mg/dL and the “HOMA-IR change from baseline, LS mean difference” value (week 12, vs placebo) was −1.72. The “HOMA-β change from baseline, LS mean difference” value (week 12, vs placebo) was 12.09, the “HbA1c change from baseline, LS mean difference” value (week 12, vs placebo) was −0.71 % p and the “LDL-C change from baseline, LS mean difference” value (week 12, vs placebo) was -6.00 mg/dL. For the same compound, the “Odds ratio for achieving HbA1c<6.5%” value (week 12, vs placebo) was 7.58, the “Odds ratio for achieving HbA1c<7%” value (week 12, vs placebo) was 6.53 and the “Odds ratio for achieving therapeutic response” value (week 12, vs placebo) was 14.77. For the same compound, the “UACR change from baseline, LS mean difference” value (week 12, vs placebo) was -15.16 g/kg, the “UGCR change from baseline, LS mean difference” value (week 12, vs placebo) was 51.21 mg/mg and the “adiponectin change from baseline, LS mean difference” value (week 12, vs placebo) was 0.67 µg/mL. For the same compound, the “body weight change from baseline, LS mean difference” value (week 12, vs placebo) was -1.66 kg, the “diastolic blood pressure change from baseline, LS mean difference” value (week 12, vs placebo) was −2.33 mmHg and the fasting C-peptide change from baseline, LS mean difference (week 12, vs placebo) was -0.12 ng/mL. The “leptin change from baseline, LS mean difference” value (week 12, vs placebo) was -3.17 ng/mL, the “systolic blood pressure change from baseline, LS mean difference” value (week 12, vs placebo) was −3.06 mmHg and the “total cholesterol change from baseline, LS mean difference” value (week 12, vs placebo) was -4.04 mg/dL. The “triglycerides change from baseline, LS mean difference” value (week 12, vs placebo) was -10.37 mg/dL, the “Body weight, Mean” value (week 18) was 65.32 kg and the “Diastolic blood pressure, Mean” value (week 18) was 72.60 mmHg. For the same compound, the “FPG change from baseline, LS mean (SE)” value (week 18) was −31.97(3.23) mg/dL, the “FPG change from baseline, Mean (SD)” value (week 18) was −30.52(22.34) mg/dL and the “FPG, Mean (SD)” value (week 18) was 110.48(14.49) mg/dL. The “HDL-C change from baseline, LS mean” value (week 18) was 4.18 mg/dL, the “HDL-C change from baseline, Mean” value (week 18) was 3.62 mg/dL and the “HDL-C, Mean” value (week 18) was 55.55 mg/dL. The “HbA1c change from baseline, LS mean (SE)” value (week 18) was −0.81(0.09) % p and the “HbA1c change from baseline, Mean (SD)” value (week 18) was −0.77(0.67) % p.
